Target: T1, Stearoyl-CoA desaturase (SCD) (Rattus norvegicus, UniProt P07308)
T1 construct: The rat liver microsomes were collected according to the procedure described in Ozols (1990) Methods Enzm, 182:225; from tissue
T1 sequence (P07308 1-358): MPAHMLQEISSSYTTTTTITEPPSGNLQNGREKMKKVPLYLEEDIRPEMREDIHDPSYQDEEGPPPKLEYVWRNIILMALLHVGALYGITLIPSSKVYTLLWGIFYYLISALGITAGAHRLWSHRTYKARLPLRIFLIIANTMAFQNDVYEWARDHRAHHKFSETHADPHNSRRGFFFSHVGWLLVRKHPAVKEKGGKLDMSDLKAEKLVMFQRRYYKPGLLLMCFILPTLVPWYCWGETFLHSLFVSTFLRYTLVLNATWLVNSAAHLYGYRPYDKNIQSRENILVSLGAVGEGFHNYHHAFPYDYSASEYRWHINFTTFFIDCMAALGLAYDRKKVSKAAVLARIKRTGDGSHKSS
Experiment: SCD assay in rat liver microsomes ([3H]stearoyl CoA desaturation, adapted from Talamo and Bloch)
Assay type: biochemical
Settings: rat liver microsomes 0.2 mg/ml final, 30 min preincubation, 45 min reaction, room temperature
Description: The identification of compounds of the invention as SCD inhibitors was readily accomplished using the SCD enzyme and microsomal assay procedure described in Talamo and Bloch (1969) Analytical Biochemistry 29:300-304.
The rat liver microsomes were collected according to the procedure described in Ozols (1990) Methods Enzm, 182:225.
Male Spraque Dawley Rats were placed on regimented fasting protocol for one week to stimulate SCD enzymatic activity. 48-hour periods were alternated between feeding and fasting to induce and down-regulate SCD activity with SCD activity being induced via carbohydrate rich diet prior to liver perfusion and collection.
The rats were anesthetized with Isoflurane inhalation anesthetic, the liver perfused with cold phosphate buffered saline (PBS), weighed, and chilled in cold homogenization buffer (250 mM sucrose, 10 mM Tris, 1 mM EDTA, pH 7.6).
The livers were finely minced and placed in homogenization tube. Homogenization buffer (40 mL) was added to the homogenization tube and the liver homogenized and centrifuged in a pre-chilled […] for 10 min at 4° C.
Following centrifugation, the supernatant was collected and the pellet removed and discarded. The supernatant was centrifuge at 10,000 G for 35 minutes. Following centrifugation, the supernatant was collect and the pellet discarded. The supernatant was then centrifuged in a pre-chilled 45-Ti rotor at 130,000 G (41,000 RPM) for 90 minutes at 4° C.
The supernatant was then aspirated off and the collected microsomal pellet washed in 25 mL of Glycerol PBS (1× PBS 7.4, 20% Glycerol) and resuspended in 4-5 volumes of Glycerol PBS.
The protein concentration of the microsomal preparation was determined by BCA assay (Pierce) and the microsomes were aliquoted and stored at −80° C.
Biobeads were ground to a smaller size in a mortar and pestle and resuspended in 3.6% TCA. The beads were then filtered through […] mesh.
SCD was determined in the desaturase assay buffer. This assay buffer contained 0.1 M Tris buffer, pH 7.2, 2 mM NADH, 4.8 mM ATP, 0.5 mM CoA, 4.8 mM MgCl2, and 0.1% BSA.
1 μl of each compound of Formula I was added to an assay plate by a low volume (0.5-10 μL) multichannel pipette. A DMSO control was also prepared. The microsomes were quickly thawed and added to assay buffer so that a concentration of 0.4 mg/ml was achieved (0.2 mg/ml assay final). 50 μl of the microsome suspension in assay buffer was then added into each well in the compound assay plate, the plate was covered, and the microsomes preincubated with the compounds for 30 minutes on the orbital shaker, 50-75rpm, at room temperature. […]

IC50	Compound
6200 nM	O=C(O)c1ccc2nn(Cc3ccc(Cl)c(Cl)c3)c(=O)n2c1 [Compound 1, 2-(3,4-dichlorobenzyl)-3-oxo-2,3-dihydro-[1,2,4]triazolo[4,3-a]pyridine-6-carboxylic acid]
190 nM	CCCCCCNC(=O)c1ccc2nn(Cc3ccc(Cl)c(Cl)c3)c(=O)n2c1 [Compound 2, 2-(3,4-dichlorobenzyl)-N-hexyl-3-oxo-2,3-dihydro-[1,2,4]triazolo[4,3-a]pyridine-6-carboxamide]
160 nM	O=C(NCCO)c1ccc2nn(Cc3ccc(Cl)c(Cl)c3)c(=O)n2c1 [Compound 3, 2-(3,4-dichlorobenzyl)-N-(2-hydroxyethyl)-3-oxo-2,3-dihydro-[1,2,4]triazolo[4,3-a]pyridine-6-carboxamide]
3100 nM	CC(C)(C)OC(=O)Nc1ccc2nn(Cc3ccc(Cl)c(Cl)c3)c(=O)n2c1 [Compound 4, tert-butyl 2-(3,4-dichlorobenzyl)-3-oxo-2,3-dihydro-[1,2,4]triazolo[4,3-a]pyridin-6-ylcarbamate]

Reference: patent US8088792B2, “Triazolopyridinone derivatives for use as stearoyl CoA desaturase inhibitors” (Gilead Sciences, Inc., priority 2008, dated 2012)
